Laboratory results reported in patent US20260193274A1, “AKT1 MODULATORS” (Alterome Therapeutics, Inc., priority 2022, published 2026).

molecular target: T1, AKT1-E17K (Homo sapiens, UniProt P31749, E17K); experiment: NanoBRET Target Engagement (TE) Assay; type: cell-based; conditions: full length AKT E17K NanoLuc fusion in transfected HEK-293 cells; 2 hr equilibration with tracer and compound
T1 construct: host or cells: HEK-293 (ATCC CRL-1573)
Source text: NanoBRET is a highly specific and validated cell-based technique for assessing target engagement (Vasta et al., 2018, Cell Chem Biol. 25(2):206-214). The NanoBRET™ Target Engagement (TE) Intracellular Kinase Assays are based on the NanoBRET™ System (Promega Corporation), an energy transfer technique designed to measure molecular proximity in living cells. The NanoBRET™ TE Assays measure the apparent affinity of test compounds by competitive displacement of the NanoBRET™ tracer compound, which is a cell permeable molecule engineered to be reversibly bound to a NanoLuc® luciferase-kinase fusion expressed in cells. For compound screening, when a test compound binds to the selected kinase, the BRET signal is attenuated. For kinase inhibitors in particular, intracellular target selectivity is fundamental to pharmacological mechanism and allows the proteins of interest to be in the correct cellular confirmation. Although non-cell-based techniques have been developed to measure kinase binding or enzymatic inhibition with accuracy and precision, such approaches can fail to accurately predict engagement of the full-length target protein in the more complex and biologically relevant cellular context (Knight and Shokat, 2005, Chem. Biol. 12, 621-637; Smyth and Collins, 2009, J. Chem. Biol. 2, 131-151). […] Briefly, HEK-293 cells (ATCC Cat #CRL-1573) were used for transfection purposes using FuGENE HD Transfection Reagent (Promega Cat #E2311). All cells were evaluated for viability prior to transfection and optimization of the transfection was done prior to experimentation. Greater than 95% viability was used for all experiments. Following transfection, cells were washed and resuspended in Opti-MEM. NanoBRET assays were performed in white, 384-well plates (Corning) at a density of 2×10^5 cells/well. All example compounds were prepared as concentrated stock solutions in DMSO (Sigma-Aldrich). Compounds are dissolved in DMSO to make 10 mM stock solution. Example compounds were transferred as 40 μL of 10 mM stock solution to a 384 pp-plate (LABCYTE, PP-0200) and diluted in 3-fold, 10-point dilution via transferring […] by Apricot liquid handler. A Labcyte ECHO 550 compound dispenser was used to facilitate compound transfer directly to cells. Cells were equilibrated for 2 hr with energy transfer probes and example compound prior to BRET measurements. The AKTE17K (Promega Cat #NV2421) as well as specific probe (NanoBRET tracer, Promega Cat #N264B) was prepared at a concentration of 20× in tracer dilution buffer (12.5 mM HEPES, 31.25% PEG-400, pH 7.5). For target engagement analysis, the energy transfer probes were added to the cells at concentrations optimized for the target in question (AKT E17K). Following compound incubation, NanoBRET NanoGlo Substrate (Promega Cat #N157D) and Extracellular Nanoluc Inhibitor (Promega Cat #N235C) was added according to the manufacturer's recommended protocol, and luminescence was measured on Envision Reader (Perkin Elmer) Multimode Luminometer equipped with 450 nmBPfilter (donor) and 600 nmLPfilter (acceptor), using 0.5 s integration time. Milli-BRET units (mBU) are calculated by multiplying the raw BRET values by 1000. Apparent tracer affinity values (EC50) were determined using the sigmoidal dose-response (variable slope). Competitive displacement data were then plotted and data were fit to determine the EC50 value for each example compound.

T1 sequence (P31749 whole entry E17K, the tested form may be a part): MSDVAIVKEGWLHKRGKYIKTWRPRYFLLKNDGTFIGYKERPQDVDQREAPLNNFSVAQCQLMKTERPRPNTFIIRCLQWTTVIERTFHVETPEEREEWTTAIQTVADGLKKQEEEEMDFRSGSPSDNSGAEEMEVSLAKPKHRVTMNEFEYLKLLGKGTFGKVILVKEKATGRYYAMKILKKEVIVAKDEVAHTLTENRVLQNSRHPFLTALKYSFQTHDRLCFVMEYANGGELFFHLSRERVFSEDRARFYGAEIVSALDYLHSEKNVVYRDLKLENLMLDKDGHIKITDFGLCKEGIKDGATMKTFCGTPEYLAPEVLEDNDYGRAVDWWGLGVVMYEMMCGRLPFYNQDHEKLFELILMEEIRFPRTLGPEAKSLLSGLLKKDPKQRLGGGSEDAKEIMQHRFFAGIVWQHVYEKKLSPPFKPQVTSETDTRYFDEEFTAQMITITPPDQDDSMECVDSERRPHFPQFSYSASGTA

Structure (SMILES)	IC50 [nM]
N#CN1CCCC2(C1)CN(Cc1ccc(-n3c(-c4cccnc4N)nc4ccc(-c5ccccc5)nc43)cc1)C2 [Example 39, 2-(4-(2-(2-Aminopyridin-3-yl)-5-phenyl-3H-imidazo[4,5-b]pyridin-3-yl)benzyl)-2,6-diazaspiro[3.5]nonane-6-carbonitrile]	60 to 600
N#CN1CCCC2(CCN(Cc3ccc(-n4c(-c5cccnc5N)nc5ccc(-c6ccccc6)nc54)cc3)CC2)C1 [Example 24, 9-(4-(2-(2-Aminopyridin-3-yl)-5-phenyl-3H-imidazo[4,5-b]pyridin-3-yl)benzyl)-2,9-diazaspiro[5.5]undecane-2-carbonitrile]	60 to 600
N#CN1C[C@@H]2C[C@H]1CN2Cc1ccc(-n2c(-c3cccnc3N)nc3ccc(-c4ccccc4)nc32)cc1 [Example 34, (1S,4S)-5-(4-(2-(2-Aminopyridin-3-yl)-5-phenyl-3H-imidazo[4,5-b]pyridin-3-yl)benzyl)-2,5-diazabicyclo[2.2.1]heptane-2-carbonitrile]	60 to 600
N#CN[C@@H]1CCCN(Cc2ccc(-n3c(-c4cccnc4N)nc4ccc(-c5ccccc5)nc43)cc2)C1 [Example 9, (R)—N-(1-(4-(2-(2-Aminopyridin-3-yl)-5-phenyl-3H-imidazo[4,5-b]pyridin-3-yl)benzyl)piperidin-3-yl)cyanamide]	15 to 60
N#CN1CC2(C1)CN(Cc1ccc(-n3c(-c4cccnc4N)nc4ccc(-c5ccccc5)nc43)cc1)C2 [Example 5, 6-(4-(2-(2-Aminopyridin-3-yl)-5-phenyl-3H-imidazo[4,5-b]pyridin-3-yl)benzyl)-2,6-diazaspiro[3.3]heptane-2-carbonitrile]	15 to 60
N#CNC1CCCN(Cc2ccc(-n3c(-c4cccnc4N)nc4ccc(-c5ccccc5)nc43)cc2)CC1 (stereo not drawn) [Example 30, N-(1-(4-(2-(2-Aminopyridin-3-yl)-5-phenyl-3H-imidazo[4,5-b]pyridin-3-yl)benzyl)azepan-4-yl)cyanamide]	15 to 60
N#CN1CCC2(C1)CN(Cc1ccc(-n3c(-c4cccnc4N)nc4ccc(-c5ccccc5)nc43)cc1)C2 [Example 38, 2-(4-(2-(2-Aminopyridin-3-yl)-5-phenyl-3H-imidazo[4,5-b]pyridin-3-yl)benzyl)-2,6-diazaspiro[3.4]octane-6-carbonitrile]	< 15
N#CN1C[C@H]2C[C@@H]1CN2Cc1ccc(-n2c(-c3cccnc3N)nc3ccc(-c4ccccc4)nc32)cc1 [Example 35, (1R,4R)-5-(4-(2-(2-Aminopyridin-3-yl)-5-phenyl-3H-imidazo[4,5-b]pyridin-3-yl)benzyl)-2,5-diazabicyclo[2.2.1]heptane-2-carbonitrile]	60 to 600
N#CN1CC2(CCN(Cc3ccc(-n4c(-c5cccnc5N)nc5ccc(-c6ccccc6)nc54)cc3)CC2)C1 [Example 15, 7-(4-(2-(2-Aminopyridin-3-yl)-5-phenyl-3H-imidazo[4,5-b]pyridin-3-yl)benzyl)-2,7-diazaspiro[3.5]nonane-2-carbonitrile]	15 to 60
N#CN1CCCN(Cc2ccc(-n3c(-c4cccnc4N)nc4ccc(-c5ccccc5)nc43)cc2)CC1 [Example 12, 4-(4-(2-(2-Aminopyridin-3-yl)-5-phenyl-3H-imidazo[4,5-b]pyridin-3-yl)benzyl)-1,4-diazepane-1-carbonitrile]	60 to 600
N#CN1CCC2(CC1)CCN(Cc1ccc(-n3c(-c4cccnc4N)nc4ccc(-c5ccccc5)nc43)cc1)CC2 [Example 17, 9-(4-(2-(2-Aminopyridin-3-yl)-5-phenyl-3H-imidazo[4,5-b]pyridin-3-yl)benzyl)-3,9-diazaspiro[5.5]undecane-3-carbonitrile]	15 to 60
N#CN[C@@H]1CCN(Cc2ccc(-n3c(-c4cccnc4N)nc4ccc(-c5ccccc5)nc43)cc2)C1 [Example 10, (R)—N-(1-(4-(2-(2-Aminopyridin-3-yl)-5-phenyl-3H-imidazo[4,5-b]pyridin-3-yl)benzyl)pyrrolidin-3-yl)cyanamide]	< 15
C[C@H]1CN(Cc2ccc(-n3c(-c4cccnc4N)nc4ccc(-c5ccccc5)nc43)cc2)C[C@H](C)N1C#N [Example 25, (2S,6S)-4-(4-(2-(2-Aminopyridin-3-yl)-5-phenyl-3H-imidazo[4,5-b]pyridin-3-yl)benzyl)-2,6-dimethylpiperazine-1-carbonitrile]	60 to 600
N#CN1C2CCC1CN(Cc1ccc(-n3c(-c4cccnc4N)nc4ccc(-c5ccccc5)nc43)cc1)C2 [Example 28, 3-(4-(2-(2-Aminopyridin-3-yl)-5-phenyl-3H-imidazo[4,5-b]pyridin-3-yl)benzyl)-3,8-diazabicyclo[3.2.1]octane-8-carbonitrile]	60 to 600
N#CN1CCN(Cc2ccc(-n3c(-c4cccnc4N)nc4ccc(-c5ccccc5)nc43)cc2)CC12CC2 [Example 33, 7-(4-(2-(2-Aminopyridin-3-yl)-5-phenyl-3H-imidazo[4,5-b]pyridin-3-yl)benzyl)-4,7-diazaspiro[2.5]octane-4-carbonitrile]	60 to 600
N#CN1CC2CCC(C1)N2Cc1ccc(-n2c(-c3cccnc3N)nc3ccc(-c4ccccc4)nc32)cc1 [Example 29, 8-(4-(2-(2-Aminopyridin-3-yl)-5-phenyl-3H-imidazo[4,5-b]pyridin-3-yl)benzyl)-3,8-diazabicyclo[3.2.1]octane-3-carbonitrile]	15 to 60
N#CN[C@H]1CCN(Cc2ccc(-n3c(-c4cccnc4N)nc4ccc(-c5ccccc5)nc43)cc2)C1 [Example 7, (S)—N-(1-(4-(2-(2-Aminopyridin-3-yl)-5-phenyl-3H-imidazo[4,5-b]pyridin-3-yl)benzyl)pyrrolidin-3-yl)cyanamide]	< 15
N#CNC1CCN(Cc2ccc(-n3c(-c4cccnc4N)nc4ccc(-c5ccccc5)nc43)cc2)CC1 [Example 3, N-(1-(4-(2-(2-Aminopyridin-3-yl)-5-phenyl-3H-imidazo[4,5-b]pyridin-3-yl)benzyl)piperidin-4-yl)cyanamide]	< 15
N#CNC1CCCCN(Cc2ccc(-n3c(-c4cccnc4N)nc4ccc(-c5ccccc5)nc43)cc2)C1 (stereo not drawn) [Example 31, N-(1-(4-(2-(2-Aminopyridin-3-yl)-5-phenyl-3H-imidazo[4,5-b]pyridin-3-yl)benzyl)azepan-3-yl)cyanamide]	60 to 600
CC(=O)Nc1cccc(-c2ccc3nc(-c4cccnc4N)n(-c4ccc(CN5CCC(NC#N)CC5)cc4)c3n2)c1 [Example 4, N-(3-(2-(2-Aminopyridin-3-yl)-3-(4-((4-cyanamidopiperidin-1-yl)methyl)phenyl)-3H-imidazo[4,5-b]pyridin-5-yl)phenyl)acetamide]	< 15
N#CN1CC2(CCN(Cc3ccc(-n4c(-c5cccnc5N)nc5ccc(-c6ccccc6)nc54)cc3)C2)C1 [Example 18, 6-(4-(2-(2-Aminopyridin-3-yl)-5-phenyl-3H-imidazo[4,5-b]pyridin-3-yl)benzyl)-2,6-diazaspiro[3.4]octane-2-carbonitrile]	60 to 600
CN(C#N)C1CCN(Cc2ccc(-n3c(-c4cccnc4N)nc4ccc(-c5ccccc5)nc43)cc2)CC1 [Example 14, N-(1-(4-(2-(2-Aminopyridin-3-yl)-5-phenyl-3H-imidazo[4,5-b]pyridin-3-yl)benzyl)piperidin-4-yl)-N-methylcyanamide]	15 to 60
N#CNN1CCN(Cc2ccc(-n3c(-c4cccnc4N)nc4ccc(-c5ccccc5)nc43)cc2)CC1 [Example 42, N-(4-(4-(2-(2-Aminopyridin-3-yl)-5-phenyl-3H-imidazo[4,5-b]pyridin-3-yl)benzyl)piperazin-1-yl)cyanamide]	< 15
N#CN1CCC2(CCN(Cc3ccc(-n4c(-c5cccnc5N)nc5ccc(-c6ccccc6)nc54)cc3)CC2)C1 [Example 16, 8-(4-(2-(2-Aminopyridin-3-yl)-5-phenyl-3H-imidazo[4,5-b]pyridin-3-yl)benzyl)-2,8-diazaspiro[4.5]decane-2-carbonitrile]	< 15
